Data as given in ChEMBL document CHEMBL3991601, “The target landscape of clinical kinase drugs” (Science, 2017).
Calls of active or inactive are those of the source.

How the values were obtained:
[1] = biological target: T1, Long-chain-fatty-acid--CoA ligase 5 (Homo sapiens, UniProt Q9ULC5)
T1 sequence (Q9ULC5 whole entry): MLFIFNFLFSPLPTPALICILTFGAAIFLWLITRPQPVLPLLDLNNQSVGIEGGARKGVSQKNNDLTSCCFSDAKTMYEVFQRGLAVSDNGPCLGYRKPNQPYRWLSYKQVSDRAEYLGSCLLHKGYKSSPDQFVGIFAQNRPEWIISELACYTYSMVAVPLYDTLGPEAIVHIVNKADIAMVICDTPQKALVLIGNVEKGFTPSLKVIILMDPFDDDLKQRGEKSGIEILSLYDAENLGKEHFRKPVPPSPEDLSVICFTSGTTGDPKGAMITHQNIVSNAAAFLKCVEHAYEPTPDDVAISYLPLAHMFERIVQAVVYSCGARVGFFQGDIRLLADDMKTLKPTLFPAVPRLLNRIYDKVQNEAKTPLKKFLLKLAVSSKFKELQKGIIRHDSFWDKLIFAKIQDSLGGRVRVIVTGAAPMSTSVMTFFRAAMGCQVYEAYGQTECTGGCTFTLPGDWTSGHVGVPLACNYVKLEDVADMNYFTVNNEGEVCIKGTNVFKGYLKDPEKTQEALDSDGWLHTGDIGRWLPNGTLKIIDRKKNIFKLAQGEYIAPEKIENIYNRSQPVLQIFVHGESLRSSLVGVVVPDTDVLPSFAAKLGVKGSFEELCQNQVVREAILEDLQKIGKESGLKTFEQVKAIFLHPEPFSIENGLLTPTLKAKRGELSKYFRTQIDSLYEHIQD

Adenosine kinase = Adenosine kinase (Homo sapiens, UniProt P55263)
Sequence of Adenosine kinase (P55263 whole entry): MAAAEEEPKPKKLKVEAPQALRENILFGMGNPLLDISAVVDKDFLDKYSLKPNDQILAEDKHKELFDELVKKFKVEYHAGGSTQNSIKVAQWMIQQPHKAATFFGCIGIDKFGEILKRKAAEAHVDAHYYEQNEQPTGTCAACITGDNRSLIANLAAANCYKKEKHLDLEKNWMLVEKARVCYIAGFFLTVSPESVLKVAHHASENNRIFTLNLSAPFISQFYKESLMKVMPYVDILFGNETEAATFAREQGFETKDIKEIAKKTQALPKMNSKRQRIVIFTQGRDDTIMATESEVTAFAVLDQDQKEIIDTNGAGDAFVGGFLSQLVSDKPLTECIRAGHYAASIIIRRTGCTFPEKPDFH

[2] = biological target: Serine/threonine-protein kinase MRCK gamma (Homo sapiens, UniProt Q6DT37)
[3] = biological target: Cyclin-dependent kinase 2 (Homo sapiens, UniProt P24941)
[4] = biological target: Cyclin-dependent kinase 6 (Homo sapiens, UniProt Q00534)
Sequence of Cyclin-dependent kinase 6 (Q00534 whole entry, canonical isoform): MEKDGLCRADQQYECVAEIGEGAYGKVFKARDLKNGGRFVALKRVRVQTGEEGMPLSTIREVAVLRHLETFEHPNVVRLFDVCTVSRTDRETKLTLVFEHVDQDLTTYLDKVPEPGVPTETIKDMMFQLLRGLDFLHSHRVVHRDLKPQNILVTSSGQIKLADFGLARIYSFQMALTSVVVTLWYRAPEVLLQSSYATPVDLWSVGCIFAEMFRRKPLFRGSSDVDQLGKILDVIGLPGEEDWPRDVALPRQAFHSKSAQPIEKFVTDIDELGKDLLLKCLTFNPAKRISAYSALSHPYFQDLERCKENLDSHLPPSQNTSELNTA

[5] = biological target: Casein kinase I isoform epsilon (Homo sapiens, UniProt P49674)
Sequence of Casein kinase I isoform epsilon (P49674 whole entry, canonical isoform): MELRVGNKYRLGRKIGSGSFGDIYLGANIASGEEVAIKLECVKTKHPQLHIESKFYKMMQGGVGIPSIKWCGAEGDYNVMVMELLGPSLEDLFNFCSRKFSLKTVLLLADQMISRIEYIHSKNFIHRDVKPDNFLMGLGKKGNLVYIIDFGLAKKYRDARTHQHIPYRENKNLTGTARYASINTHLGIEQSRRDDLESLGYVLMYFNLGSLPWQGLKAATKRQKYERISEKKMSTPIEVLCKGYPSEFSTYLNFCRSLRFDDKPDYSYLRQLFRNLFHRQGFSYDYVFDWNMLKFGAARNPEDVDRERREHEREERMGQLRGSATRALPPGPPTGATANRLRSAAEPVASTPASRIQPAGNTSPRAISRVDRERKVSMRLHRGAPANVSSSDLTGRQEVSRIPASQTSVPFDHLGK

[6] = biological target: Casein kinase I isoform gamma-1 (Homo sapiens, UniProt Q9HCP0)
Sequence of Casein kinase I isoform gamma-1 (Q9HCP0 whole entry, canonical isoform): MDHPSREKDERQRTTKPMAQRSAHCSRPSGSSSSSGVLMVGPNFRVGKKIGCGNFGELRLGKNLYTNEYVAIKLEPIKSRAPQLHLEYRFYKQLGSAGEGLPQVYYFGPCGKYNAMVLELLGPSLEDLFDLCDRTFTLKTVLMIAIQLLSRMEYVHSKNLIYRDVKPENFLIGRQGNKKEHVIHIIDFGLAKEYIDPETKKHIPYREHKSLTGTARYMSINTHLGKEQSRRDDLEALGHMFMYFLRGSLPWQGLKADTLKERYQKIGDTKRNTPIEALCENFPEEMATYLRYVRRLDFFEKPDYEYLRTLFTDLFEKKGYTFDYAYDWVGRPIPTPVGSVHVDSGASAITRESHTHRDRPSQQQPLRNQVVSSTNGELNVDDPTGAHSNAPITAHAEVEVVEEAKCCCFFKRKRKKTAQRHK

[7] = biological target: T2, Cytochrome c1, heme protein, mitochondrial (Homo sapiens, UniProt P08574)
T2 sequence (P08574 whole entry): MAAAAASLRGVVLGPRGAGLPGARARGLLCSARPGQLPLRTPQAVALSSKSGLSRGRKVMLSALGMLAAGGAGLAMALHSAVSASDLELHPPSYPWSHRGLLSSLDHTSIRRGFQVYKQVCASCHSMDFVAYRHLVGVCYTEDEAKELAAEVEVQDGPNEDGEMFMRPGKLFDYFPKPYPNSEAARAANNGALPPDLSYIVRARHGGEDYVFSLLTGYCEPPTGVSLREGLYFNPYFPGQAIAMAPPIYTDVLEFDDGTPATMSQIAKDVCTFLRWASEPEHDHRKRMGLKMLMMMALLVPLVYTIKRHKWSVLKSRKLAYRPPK

dCTP pyrophosphatase 1 = biological target: T3, dCTP pyrophosphatase 1 (Homo sapiens, UniProt Q9H773)
T3 sequence (Q9H773 whole entry): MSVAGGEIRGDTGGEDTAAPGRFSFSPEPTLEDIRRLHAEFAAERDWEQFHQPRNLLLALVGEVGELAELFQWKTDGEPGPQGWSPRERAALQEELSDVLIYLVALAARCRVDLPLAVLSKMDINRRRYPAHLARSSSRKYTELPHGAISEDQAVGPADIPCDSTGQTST

[8] = biological target: T4, Probable ATP-dependent RNA helicase DDX6 (Homo sapiens, UniProt P26196)
T4 sequence (P26196 whole entry): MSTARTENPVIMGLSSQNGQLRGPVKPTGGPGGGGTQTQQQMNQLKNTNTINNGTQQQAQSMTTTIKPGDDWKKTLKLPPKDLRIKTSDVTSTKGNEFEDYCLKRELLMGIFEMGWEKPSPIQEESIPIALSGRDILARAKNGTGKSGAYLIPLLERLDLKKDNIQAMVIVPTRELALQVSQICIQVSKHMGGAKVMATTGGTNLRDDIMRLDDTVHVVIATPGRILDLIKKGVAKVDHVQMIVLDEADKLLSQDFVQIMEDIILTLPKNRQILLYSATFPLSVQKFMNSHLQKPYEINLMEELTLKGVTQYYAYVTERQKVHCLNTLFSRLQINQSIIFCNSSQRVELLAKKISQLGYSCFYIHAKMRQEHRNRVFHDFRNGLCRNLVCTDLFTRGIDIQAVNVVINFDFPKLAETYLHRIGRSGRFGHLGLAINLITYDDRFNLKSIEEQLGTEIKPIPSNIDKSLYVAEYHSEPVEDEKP

[9] = biological target: Putative heat shock protein HSP 90-beta 2 (Homo sapiens, UniProt Q58FF8)
Myosin-14 = Myosin-14 (Homo sapiens, UniProt Q7Z406)
Sequence of Myosin-14 (Q7Z406 whole entry): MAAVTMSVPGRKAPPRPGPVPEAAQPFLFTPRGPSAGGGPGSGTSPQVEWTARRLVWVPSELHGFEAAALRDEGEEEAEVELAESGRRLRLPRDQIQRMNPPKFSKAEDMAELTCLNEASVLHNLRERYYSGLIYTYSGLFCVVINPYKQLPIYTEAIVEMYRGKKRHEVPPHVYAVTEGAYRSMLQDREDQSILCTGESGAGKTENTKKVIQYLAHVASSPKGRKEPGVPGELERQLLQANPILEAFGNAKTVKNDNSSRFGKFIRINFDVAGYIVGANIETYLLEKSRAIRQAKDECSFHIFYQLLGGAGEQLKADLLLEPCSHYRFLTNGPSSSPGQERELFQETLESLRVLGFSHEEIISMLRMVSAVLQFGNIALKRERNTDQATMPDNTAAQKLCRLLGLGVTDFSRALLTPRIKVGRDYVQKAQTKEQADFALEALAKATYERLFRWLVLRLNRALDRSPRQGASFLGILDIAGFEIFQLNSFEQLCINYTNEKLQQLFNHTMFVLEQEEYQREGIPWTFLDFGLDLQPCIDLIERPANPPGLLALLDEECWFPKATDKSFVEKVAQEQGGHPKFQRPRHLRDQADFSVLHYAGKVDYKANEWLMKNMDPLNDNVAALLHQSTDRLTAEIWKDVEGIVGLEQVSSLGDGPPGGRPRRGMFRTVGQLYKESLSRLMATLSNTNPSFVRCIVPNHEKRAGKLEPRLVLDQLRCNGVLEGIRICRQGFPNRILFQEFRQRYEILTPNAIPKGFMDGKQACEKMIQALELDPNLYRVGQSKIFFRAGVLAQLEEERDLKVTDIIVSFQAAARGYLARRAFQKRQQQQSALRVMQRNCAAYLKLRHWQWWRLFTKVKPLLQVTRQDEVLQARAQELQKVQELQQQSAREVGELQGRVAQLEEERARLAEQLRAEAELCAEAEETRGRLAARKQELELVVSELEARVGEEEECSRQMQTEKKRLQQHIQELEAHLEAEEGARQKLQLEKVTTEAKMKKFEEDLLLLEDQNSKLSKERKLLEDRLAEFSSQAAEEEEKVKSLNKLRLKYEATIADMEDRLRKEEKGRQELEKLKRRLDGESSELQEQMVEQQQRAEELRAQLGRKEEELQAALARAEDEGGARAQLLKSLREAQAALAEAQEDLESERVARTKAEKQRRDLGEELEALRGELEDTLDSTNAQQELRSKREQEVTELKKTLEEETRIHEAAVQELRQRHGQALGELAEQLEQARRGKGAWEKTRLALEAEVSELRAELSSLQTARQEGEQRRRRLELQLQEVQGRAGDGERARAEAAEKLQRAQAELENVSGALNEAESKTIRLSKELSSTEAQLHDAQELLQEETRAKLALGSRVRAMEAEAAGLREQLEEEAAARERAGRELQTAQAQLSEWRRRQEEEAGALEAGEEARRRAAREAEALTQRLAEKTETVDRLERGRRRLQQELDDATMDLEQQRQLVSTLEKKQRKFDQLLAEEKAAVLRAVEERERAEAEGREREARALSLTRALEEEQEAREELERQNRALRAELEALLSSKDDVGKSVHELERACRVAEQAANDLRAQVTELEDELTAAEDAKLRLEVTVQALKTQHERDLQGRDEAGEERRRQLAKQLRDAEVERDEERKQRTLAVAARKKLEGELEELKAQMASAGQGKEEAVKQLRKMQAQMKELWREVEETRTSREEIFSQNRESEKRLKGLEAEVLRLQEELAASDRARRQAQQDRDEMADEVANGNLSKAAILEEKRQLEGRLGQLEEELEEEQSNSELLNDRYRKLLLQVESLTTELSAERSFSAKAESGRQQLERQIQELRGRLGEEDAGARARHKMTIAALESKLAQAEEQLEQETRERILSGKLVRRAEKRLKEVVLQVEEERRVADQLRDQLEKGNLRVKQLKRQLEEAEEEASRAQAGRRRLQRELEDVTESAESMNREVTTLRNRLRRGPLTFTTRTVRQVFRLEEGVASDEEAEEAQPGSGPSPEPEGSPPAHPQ

[10] = biological target: T5, Ribosyldihydronicotinamide dehydrogenase [quinone] (Homo sapiens, UniProt P16083)
T5 sequence (P16083 whole entry): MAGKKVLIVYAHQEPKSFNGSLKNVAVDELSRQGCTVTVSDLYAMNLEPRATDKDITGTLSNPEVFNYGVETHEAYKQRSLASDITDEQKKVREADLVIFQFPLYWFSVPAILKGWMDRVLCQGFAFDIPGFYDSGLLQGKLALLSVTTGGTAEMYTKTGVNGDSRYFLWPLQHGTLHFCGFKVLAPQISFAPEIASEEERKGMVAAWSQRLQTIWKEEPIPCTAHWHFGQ

[11] = biological target: Protein-tyrosine kinase 6 (Homo sapiens, UniProt Q13882)
Sequence of Protein-tyrosine kinase 6 (Q13882 whole entry): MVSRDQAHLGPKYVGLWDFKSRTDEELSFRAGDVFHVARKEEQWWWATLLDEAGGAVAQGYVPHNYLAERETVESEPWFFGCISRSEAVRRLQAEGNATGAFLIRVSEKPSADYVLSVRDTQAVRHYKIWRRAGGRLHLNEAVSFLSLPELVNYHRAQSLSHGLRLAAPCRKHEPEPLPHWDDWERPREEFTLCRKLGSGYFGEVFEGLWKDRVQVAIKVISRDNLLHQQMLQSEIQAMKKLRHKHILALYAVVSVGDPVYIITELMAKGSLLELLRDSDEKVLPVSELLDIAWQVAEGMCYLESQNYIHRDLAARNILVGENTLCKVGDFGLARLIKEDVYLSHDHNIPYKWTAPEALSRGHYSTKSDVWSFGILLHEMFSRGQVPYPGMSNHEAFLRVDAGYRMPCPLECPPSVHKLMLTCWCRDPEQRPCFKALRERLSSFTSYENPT

Rab-like protein 3 = biological target: T6, Rab-like protein 3 (Homo sapiens, UniProt Q5HYI8)
T6 sequence (Q5HYI8 whole entry): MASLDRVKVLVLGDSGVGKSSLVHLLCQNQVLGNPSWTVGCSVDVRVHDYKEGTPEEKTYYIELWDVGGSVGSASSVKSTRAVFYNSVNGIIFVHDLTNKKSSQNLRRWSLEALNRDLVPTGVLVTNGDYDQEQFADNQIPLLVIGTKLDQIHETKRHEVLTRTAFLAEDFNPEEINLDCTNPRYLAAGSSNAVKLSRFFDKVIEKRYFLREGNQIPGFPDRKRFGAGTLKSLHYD

[12] = biological target: Ribosomal protein S6 kinase alpha-4 (Homo sapiens, UniProt O75676)
Sequence of Ribosomal protein S6 kinase alpha-4 (O75676 whole entry, canonical isoform): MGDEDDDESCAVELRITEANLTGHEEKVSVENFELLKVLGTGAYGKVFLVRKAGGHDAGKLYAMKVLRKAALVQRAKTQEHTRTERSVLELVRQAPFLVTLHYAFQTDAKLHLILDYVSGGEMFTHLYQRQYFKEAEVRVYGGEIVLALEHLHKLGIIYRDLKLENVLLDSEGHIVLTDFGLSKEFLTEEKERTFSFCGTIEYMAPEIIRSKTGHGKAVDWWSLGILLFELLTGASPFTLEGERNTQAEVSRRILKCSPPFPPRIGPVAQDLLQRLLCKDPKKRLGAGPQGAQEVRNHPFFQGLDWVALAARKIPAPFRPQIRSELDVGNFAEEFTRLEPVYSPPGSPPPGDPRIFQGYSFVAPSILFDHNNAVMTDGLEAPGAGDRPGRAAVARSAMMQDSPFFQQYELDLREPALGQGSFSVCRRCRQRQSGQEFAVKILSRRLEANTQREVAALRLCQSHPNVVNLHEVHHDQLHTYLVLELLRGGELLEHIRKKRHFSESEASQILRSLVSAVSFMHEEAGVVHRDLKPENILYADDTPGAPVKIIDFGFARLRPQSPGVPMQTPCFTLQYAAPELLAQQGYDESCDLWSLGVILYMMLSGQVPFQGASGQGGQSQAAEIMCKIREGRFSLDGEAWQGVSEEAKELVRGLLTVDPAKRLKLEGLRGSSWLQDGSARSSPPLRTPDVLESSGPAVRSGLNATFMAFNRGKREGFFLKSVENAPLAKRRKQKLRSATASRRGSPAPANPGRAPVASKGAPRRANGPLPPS

[13] = biological target: Casein kinase I isoform alpha (Homo sapiens, UniProt P48729)
LIM domain kinase 1 = LIM domain kinase 1 (Homo sapiens, UniProt P53667)
Also: in the data inactive means no Kd found up to 30 µM.

Kd [1]	Kd (Adenosine kinase)	Kd [2]	Kd [3]	Kd [4]	Kd [5]	Kd [6]	Kd [7]	Kd (dCTP pyrophosphatase 1)	Kd [8]	Kd [9]	Kd (Myosin-14)	Kd [10]	Kd [11]	Kd (Rab-like protein 3)	Kd [12]	Kd [13]	Kd (LIM domain kinase 1)	SMILES
> 30 µM (inactive)	> 30 µM (inactive)	> 30 µM (inactive)	> 30 µM (inactive)	> 30 µM (inactive)	> 30 µM (inactive)	> 30 µM (inactive)	> 30 µM (inactive)	> 30 µM (inactive)	> 30 µM (inactive)	> 30 µM (inactive)	> 30 µM (inactive)	> 30 µM (inactive)	> 30 µM (inactive)	> 30 µM (inactive)	> 30 µM (inactive)	–	–	CCN(CCCOc1ccc2c(Nc3cc(CC(=O)Nc4cccc(F)c4)n[nH]3)ncnc2c1)CCOP(=O)(O)O [BARASERTIB]
> 30 µM (inactive)	> 30 µM (inactive)	> 30 µM (inactive)	> 30 µM (inactive)	> 30 µM (inactive)	> 30 µM (inactive)	–	> 30 µM (inactive)	> 30 µM (inactive)	> 30 µM (inactive)	–	> 30 µM (inactive)	> 30 µM (inactive)	> 30 µM (inactive)	> 30 µM (inactive)	> 30 µM (inactive)	> 30 µM (inactive)	> 30 µM (inactive)	S=C(NCc1ccc2c(c1)OCO2)N1CCN(c2ncnc3c2oc2ccccc23)CC1 [AMUVATINIB]
> 30 µM (inactive)	> 30 µM (inactive)	> 30 µM (inactive)	> 30 µM (inactive)	> 30 µM (inactive)	> 30 µM (inactive)	> 30 µM (inactive)	> 30 µM (inactive)	> 30 µM (inactive)	> 30 µM (inactive)	> 30 µM (inactive)	> 30 µM (inactive)	> 30 µM (inactive)	> 30 µM (inactive)	> 30 µM (inactive)	> 30 µM (inactive)	–	–	Cn1c(=O)n(-c2ccc(C(C)(C)C#N)cc2)c2c3cc(-c4cnc5ccccc5c4)ccc3ncc21 [DACTOLISIB]
> 30 µM (inactive)	> 30 µM (inactive)	> 30 µM (inactive)	–	> 30 µM (inactive)	0.285 µM (active)	0.282 µM (active)	> 30 µM (inactive)	> 30 µM (inactive)	> 30 µM (inactive)	> 30 µM (inactive)	> 30 µM (inactive)	1.41 µM (active)	> 30 µM (inactive)	> 30 µM (inactive)	> 30 µM (inactive)	5.16 µM (active)	> 30 µM (inactive)	c1cc(OCCN2CCCCC2)cc(-c2n[nH]c3ccc(-c4nc[nH]n4)cc23)c1 [CC-401]

SMILES	Kd [1]	Kd (Adenosine kinase)	Kd [2]	Kd [3]	Kd [4]	Kd [5]	Kd [6]	Kd [7]	Kd (dCTP pyrophosphatase 1)	Kd [8]	Kd [9]	Kd (Myosin-14)	Kd [10]	Kd [11]	Kd (Rab-like protein 3)	Kd [12]	Kd [13]	Kd (LIM domain kinase 1)
C=CCn1c(=O)c2cnc(Nc3ccc(N4CCN(C)CC4)cc3)nc2n1-c1cccc(C(C)(C)O)n1 [ADAVOSERTIB]	> 30 µM (inactive)	0.013 µM (active)	> 30 µM (inactive)	> 30 µM (inactive)	> 30 µM (inactive)	> 30 µM (inactive)	> 30 µM (inactive)	> 30 µM (inactive)	> 30 µM (inactive)	> 30 µM (inactive)	> 30 µM (inactive)	> 30 µM (inactive)	> 30 µM (inactive)	> 30 µM (inactive)	> 30 µM (inactive)	> 30 µM (inactive)	–	–
CN(c1ncccc1CNc1nc(Nc2ccc3c(c2)CC(=O)N3)ncc1C(F)(F)F)S(C)(=O)=O [PF-00562271]	> 30 µM (inactive)	> 30 µM (inactive)	> 30 µM (inactive)	1.07 µM (active)	> 30 µM (inactive)	> 30 µM (inactive)	–	> 30 µM (inactive)	> 30 µM (inactive)	> 30 µM (inactive)	> 30 µM (inactive)	> 30 µM (inactive)	> 30 µM (inactive)	> 30 µM (inactive)	> 30 µM (inactive)	> 30 µM (inactive)	–	–
